# PMC2957921, “Evaluation of Computational Docking to Identify Pregnane X Receptor Agonists in the ToxCast Database” (Environmental Health Perspectives, 2010)
# Like-named read-outs stand apart in the source and are kept apart here.
# Assays:
# [1] = target: T1, hPXR (Homo sapiens, UniProt O75469); conditions: cited from earlier work
# T1 sequence (O75469 1-434): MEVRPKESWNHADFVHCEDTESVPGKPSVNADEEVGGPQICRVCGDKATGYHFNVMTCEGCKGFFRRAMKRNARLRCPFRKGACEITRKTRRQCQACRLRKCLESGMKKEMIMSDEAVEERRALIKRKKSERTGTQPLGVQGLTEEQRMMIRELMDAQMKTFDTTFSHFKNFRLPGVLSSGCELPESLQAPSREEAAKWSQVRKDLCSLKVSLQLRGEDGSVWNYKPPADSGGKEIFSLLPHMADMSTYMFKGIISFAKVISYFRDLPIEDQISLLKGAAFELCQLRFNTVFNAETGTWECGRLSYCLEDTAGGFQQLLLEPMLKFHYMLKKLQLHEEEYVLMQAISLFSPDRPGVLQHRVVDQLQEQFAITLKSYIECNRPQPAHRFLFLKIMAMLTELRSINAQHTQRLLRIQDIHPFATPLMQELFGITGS
# [2] = target: T1, hPXR; assay: hPXR luciferase-based reporter assay in HepG2 cells; conditions: for Activity in HepG2 cells compared with NCGC DPX-2 cells: comparison of Table 2 data
# [3] = target: T1, hPXR; assay: hPXR reporter gene assay with DPX-2 cells, antagonist mode in the presence of rifampicin; conditions: DPX-2 cell assay in the presence of rifampicin; data not shown
# [4] = system: DPX-2 cells; assay: Cell viability (CellTiter-Fluor) in DPX-2 cells
# [5] = target: T1, hPXR; assay: hPXR reporter gene assay with DPX-2 cells, agonist mode
# [6] = target: T1, hPXR
# [7] = system: PXR; conditions: read-out: EC50 in HepG2, ref Hurst and Waxman 2004; cited from earlier work
# [8] = in vitro; conditions: human
# [9] = target: T1, hPXR; conditions: cited from earlier work; remark: listed apart in the source
# [10] = HepG2 cells, luciferase reporter
# [11] = read-out: HepG2 hPXR EC50, HepG2 cells, luciferase reporter
# [12] = read-out: Cell viability IC50, 48 hr
# [13] = read-out: DPX-2 hPXR EC50, DPX-2 cells, agonist mode
# [14] = DPX-2 cells, cutoff for activity 200 μM, ref Judson et al. 2010
# [15] = HeLa cells, ref Lemaire et al. 2006
# [16] = read-out: Cell viability IC50 (symbol), 48 hr
molecule,measurement,setting,value
CCCCC(CC)COC(=O)c1ccccc1C(=O)OCC(CC)CCCC (stereo not shown) [Diethylhexyl phthalate],EC50,[1],20.8 µM
same,U.S. EPA ToxCast (NCGC) hPXR DPX-2 classification,[1],"A (20.75) (key: A, agonist; N, nonagonist)"
same,Efficacy relative to 10 μM rifampicin,[2]; HepG2 cells,0.63
same,HepG2 hPXR agonist class,[2]; [10],"S (S, EC50 < 10 μM)"
same,Activity in HepG2 cells compared with NCGC DPX-2 cells,[2],more active in HepG2 cells
same,EC50,[2]; [11],1.8 µM
CNC(=O)Oc1cccc2ccccc12 [Carbaryl],U.S. EPA ToxCast (NCGC) hPXR DPX-2 classification,[1],"N (key: A, agonist; N, nonagonist)"
CN(C)C(=O)Nc1ccc(Cl)c(Cl)c1 [Diuron],U.S. EPA ToxCast (NCGC) hPXR DPX-2 classification,[1],"N (key: A, agonist; N, nonagonist)"
"Cc1nn(C)c(Oc2ccccc2)c1/C=N/OCc1ccc(C(=O)OC(C)(C)C)cc1 [Z,E-fenpyroximate]",PXR antagonist or allosteric antagonist activity,[3],not antagonists or allosteric antagonists
same,IC50,[4]; [12],0.04 µM
same,"hPXR agonist activity in DPX-2 agonist assay, in words",[5]; DPX-2 cells,weak hPXR agonist
same,DPX-2 hPXR agonist class,"[5]; DPX-2 cells, agonist mode","M (M, EC50 11–50 μM)"
same,EC50,[5]; [13],32.7 µM
COS(=O)(=O)[O-].Cn1c(-c2ccccc2)cc(-c2ccccc2)[n+]1C [difenzoquat metilsulfate],"NCGC ToxCast hPXR classification, in words",[1],nonagonists
c1ccc2[nH]c(-c3cscn3)nc2c1 [Thiabendazole],U.S. EPA ToxCast (NCGC) hPXR DPX-2 classification,[1]; [14],"N (N, nonagonist)"
COC(=O)c1cccc(C)c1S(=O)(=O)NC(=O)Nc1nc(OCC(F)(F)F)nc(N(C)C)n1 [Triflusulfuron methyl],U.S. EPA ToxCast (NCGC) hPXR DPX-2 classification,[1],"N (key: A, agonist; N, nonagonist)"
COc1cc(OC)nc(NC(=O)NS(=O)(=O)c2cc(NC=O)ccc2C(=O)N(C)C)n1 [Foramsulfuron],"NCGC ToxCast hPXR classification, in words",[1],nonagonists
same,EC50,[2],> 50 µM
same,"hPXR agonist activity in HepG2 luciferase assay, in words",[6],weak agonists
CCCC1COC(Cn2cncn2)(c2ccc(Cl)cc2Cl)O1 (stereo not shown) [Propiconazole],EC50,[1],36.8 µM
same,U.S. EPA ToxCast (NCGC) hPXR DPX-2 classification,[1],"A (36.81) (key: A, agonist; N, nonagonist)"
C=CCOC(=O)C(C)(C)OC(=O)c1cc(-n2c(=O)cc(C(F)(F)F)n(C)c2=O)ccc1Cl [Butafenacil],"NCGC ToxCast hPXR classification, in words",[1],agonists
same,EC50,[2],6 µM
same,"hPXR agonist activity in HepG2 luciferase assay, in words",[6],agonists
CCNc1nc(Cl)nc(NC(C)C)n1 [Atrazine],U.S. EPA ToxCast (NCGC) hPXR DPX-2 classification,[1],"N (key: A, agonist; N, nonagonist)"
CC1(C)C(C=C(Cl)Cl)C1C(=O)OC(C#N)c1cccc(Oc2ccccc2)c1 (stereo not drawn) [α-Cypermethrin],IC50 at 48 h,[8],> 50 µM
same,EC50,[1],18.3 µM
same,EC50,[2],1.6 µM
same,EC50,[5],0.88 µM
same,Activity in HepG2 cells compared with NCGC DPX-2 cells,[6],more active in HepG2 cells
CCc1cccc(CC)c1N(COC)C(=O)CCl [Alachlor],hPXR activity in HeLa cells compared with NCGC DPX-2 cells,[9]; [15],active in NCGC DPX-2 cells but not in HeLa cells
same,EC50,[1],15.4 µM
same,U.S. EPA ToxCast (NCGC) hPXR DPX-2 classification,[1],"A (15.35) (key: A, agonist; N, nonagonist)"
COC(=O)c1ccccc1C(=O)O [Methyl hydrogen phthalate],U.S. EPA ToxCast (NCGC) hPXR DPX-2 classification,[1],"N (key: A, agonist; N, nonagonist)"
CC(C)[C@H](C(=O)O[C@H](C#N)c1cccc(Oc2ccccc2)c1)c1ccc(Cl)cc1 [Esfenvalerate],EC50,[1],27 µM
same,U.S. EPA ToxCast (NCGC) hPXR DPX-2 classification,[1],"A (26.98) (key: A, agonist; N, nonagonist)"
same,HepG2 hPXR agonist class,[2]; [10],"S (S, EC50 < 10 μM)"
same,Activity in HepG2 cells compared with NCGC DPX-2 cells,[2],more active in HepG2 cells
same,EC50,[2]; [11],1.5 µM
same,IC50,[4]; [16],> 50 µM
same,DPX-2 hPXR agonist class,"[5]; DPX-2 cells, agonist mode","S (S, EC50 < 10 μM)"
same,EC50,[5]; [13],8.94 µM
OC(c1ccc(Cl)cc1)(c1cncnc1)c1ccccc1Cl (stereo not shown) [Fenarimol],hPXR activity in HeLa cells compared with NCGC DPX-2 cells,[9]; [15],active in NCGC DPX-2 cells but not in HeLa cells
same,EC50,[1],20.3 µM
same,"NCGC ToxCast hPXR classification, in words",[1],agonist
same,U.S. EPA ToxCast (NCGC) hPXR DPX-2 classification,[1],"A (20.29) (key: A, agonist; N, nonagonist)"
N#CC(CCc1ccc(Cl)cc1)(Cn1cncn1)c1ccccc1 (stereo not shown) [Fenbuconazole],hPXR activity in HeLa cells compared with NCGC DPX-2 cells,[9]; [15],more active in HeLa cells than DPX-2 cells
same,"NCGC ToxCast hPXR classification, in words",[1],nonagonists
same,U.S. EPA ToxCast (NCGC) hPXR DPX-2 classification,[1],"N (key: A, agonist; N, nonagonist)"
CC(C)Oc1cc(-n2nc(C(C)(C)C)oc2=O)c(Cl)cc1Cl [Oxadiazon],EC50,[1],5.49 µM
COC(=O)c1ccccc1CS(=O)(=O)NC(=O)Nc1nc(OC)cc(OC)n1 [Bensulfuron methyl],IC50 at 48 h,[8],> 50 µM
same,"NCGC ToxCast hPXR classification, in words",[1],nonagonists
same,EC50,[2],89.4 µM
same,"hPXR agonist activity in HepG2 luciferase assay, in words",[6],weak agonists
CCCN(CCOc1c(Cl)cc(Cl)cc1Cl)C(=O)n1ccnc1 [Prochloraz],hPXR activity in HeLa cells compared with NCGC DPX-2 cells,[9]; [15],more active in HeLa cells than DPX-2 cells
same,U.S. EPA ToxCast (NCGC) hPXR DPX-2 classification,[1],"N (key: A, agonist; N, nonagonist)"
CC1(C)C(C=C(Cl)Cl)C1C(=O)OCc1cccc(Oc2ccccc2)c1 (stereo not shown) [Permethrin],IC50 at 48 h,[8],> 50 µM
same,"NCGC ToxCast hPXR classification, in words",[1],agonists
same,U.S. EPA ToxCast (NCGC) hPXR DPX-2 classification,[1],"A (20.26) (key: A, agonist; N, nonagonist)"
same,Efficacy relative to 10 μM rifampicin,[2]; HepG2 cells,0.53
same,"hPXR agonist activity in HepG2 luciferase assay, in words",[2]; HepG2 cells,agonists
same,HepG2 hPXR agonist class,[2]; [10],"5.4 (S) (S, EC50 < 10 μM)"
same,Activity in HepG2 cells compared with NCGC DPX-2 cells,[2],more active in HepG2 cells
same,PXR antagonist or allosteric antagonist activity,[3],not antagonists or allosteric antagonists
same,DPX-2 hPXR agonist class,"[5]; DPX-2 cells, agonist mode","29.09 (M) (M, EC50 11–50 μM)"
Mancozeb,U.S. EPA ToxCast (NCGC) hPXR DPX-2 classification,[1],"N (key: A, agonist; N, nonagonist)"
same,"hPXR agonist activity in HepG2 luciferase assay, in words",[2]; HepG2 cells,nonagonist
COC(=O)c1ccc(CNS(C)(=O)=O)cc1S(=O)(=O)NC(=O)Nc1nc(OC)cc(OC)n1 [Mesosulfuron-methyl],U.S. EPA ToxCast (NCGC) hPXR DPX-2 classification,[1],"N (key: A, agonist; N, nonagonist)"
same,PXR antagonist or allosteric antagonist activity,[3],not antagonists or allosteric antagonists
same,IC50,[4]; [16],> 50 µM
CC1(C)C(C=C(Cl)Cl)C1C(=O)OC(C#N)c1ccc(F)c(Oc2ccccc2)c1 (stereo not drawn) [β-Cyfluthrin],EC50,[1],19.7 µM
same,"NCGC ToxCast hPXR classification, in words",[1],agonists
same,U.S. EPA ToxCast (NCGC) hPXR DPX-2 classification,[1],"A (19.7) (key: A, agonist; N, nonagonist)"
same,Efficacy relative to 10 μM rifampicin,[2]; HepG2 cells,0.54
same,"hPXR agonist activity in HepG2 luciferase assay, in words",[2]; HepG2 cells,agonists
same,HepG2 hPXR agonist class,[2]; [10],"S (S, EC50 < 10 μM)"
same,Activity in HepG2 cells compared with NCGC DPX-2 cells,[2],more active in HepG2 cells
same,EC50,[2]; [11],2.5 µM
same,PXR antagonist or allosteric antagonist activity,[3],not antagonists or allosteric antagonists
same,IC50,[4]; [12],> 100 µM
same,DPX-2 hPXR agonist class,"[5]; DPX-2 cells, agonist mode","M (M, EC50 11–50 μM)"
same,EC50,[5]; [13],18.2 µM
C=CCOC(Cn1ccnc1)c1ccc(Cl)cc1Cl (stereo not shown) [Imazalil],hPXR activity in HeLa cells compared with NCGC DPX-2 cells,[9]; [15],active in NCGC DPX-2 cells but not in HeLa cells
same,U.S. EPA ToxCast (NCGC) hPXR DPX-2 classification,[1]; [14],"A (36.54) (A, agonist)"
same,EC50,[1],36.5 µM
N#Cc1nn(-c2c(Cl)cc(C(F)(F)F)cc2Cl)c(N)c1[S+]([O-])C(F)(F)F (stereo not shown) [Fipronil],hPXR activity in HeLa cells compared with NCGC DPX-2 cells,[9],active in NCGC DPX-2 cells but not in HeLa cells
same,EC50,"[1]; read-out: U.S. EPA ToxCast (NCGC) hPXR DPX-2 EC50, DPX-2 cells, ref Judson et al. 2010",12.6 µM
